From patent US8969303B2, “Tocotrienol esters” (First Tech International Limited, priority 2010, dated 2015) come the findings set out here.

The term IC50 denotes the concentration that gives 50% inhibition. High values mean lower potency, low ones higher potency.

The nature of one series: Stability in rat plasma. In kind it is in vitro ADME. To be noted: 37° C. The procedure: The stability of each of α-tocotrienol and Compound 6 was studied at 37° C. in rat plasma. In amber vials, 50 μg/mL of each Compound were dissolved in the plasma. The solution was incubated at 37° C., and at interval times (0, 0.5, 1, 2, 4, 6, and 24 h), 50 μL samples were taken and mixed with 100 μL of methanol followed by centrifugation at 14,000 rpm for 10 min. Each supernatant was analyzed by HPLC. In rat plasma, Compound 6 concentration was 100% stable over the first 3 h. Its concentration then started to decrease at the […] to become 81% and 77% of the initial concentration, respectively. After 24 hours, only 43% of the initial concentration of Compound 6 was detectable. The slow rate of hydrolysis of Compound 6 compared to α-tocotrienol may bode well for expected enhanced metabolic stability.
(§1) A Shimadzu HPLC system (Columbia, Md.) was used for quantification of α-tocotrienol and Compound 6. This system is composed of SIL 20-AHT autosampler, SPD-20A UV/VIS detector, and LC-20AB pump connected to a Dgu-20A3 degasser. Data acquisition was achieved by LC Solution software version 1.22 SP1 Shimadzu. The following chromatographic conditions were used: […] (250×4.6 mm id; Phenomenex, Torrance, Calif.), flow rate was adjusted to 1.0 mL/min, and λ was set at 295 nm. For α-tocotrienol solubility and stability studies, an isocratic elution with MeOH-EtOH—CH3CN (40:30:30, v/v/v) as mobile phase for 10 min. α-tocotrienol was eluted at 6.7 min. For the simultaneous separation of α-tocotrienol and Compound 6 the following gradient elution was also used starting with H2O— MeOH—N(Et)3 (10:90:0.05, v/v/v) for 5 min, followed by isocratic MeOH—N(Et)3 (100:0.05, v/v) for another 10 min. The retention times were 4 and 14.1 for Compound 6 and α-tocotrienol, respectively. Standard curves for α-tocotrienol and Compound 6 in MeOH were prepared in the range of 0.4-50 μg/mL and 1-1000 μg/mL, respectively. Each compound was quantified using its calibration curve for compounds peak area versus its concentration.

The subject of series [1] is +SA mammary epithelial cells. In words: Antiproliferative MTT assay on +SA mammary epithelial cells. It is filed as cell-based, mouse. To be noted: malignant mice +SA mammary cells, 24 hour treatment, MTT. From the text: +SA mammary epithelial cell lines were serially passaged at subconfluent cell density. The +SA cell line was derived from an adenocarcinoma that developed spontaneously in a BALB/c female mouse. That cell line is discussed in more detail in Anderson, L. W., Danielson, K. G., Hosick, H. L. Eur. J. Cancer Clin. Oncol. 1981, 17, 1001-1008, Danielson, K G., Anderson, L. W., Hosick, H. L. Cancer Res. 1980, 40, 1812-1819.31, and Anderson, L. W., Danielson, K. G., Hosick, H. L. In Vitro. 1979, 15, 841-843. Cell culture conditions were similar to those described in detail in Shah, S. J., Gapor, A., Sylvester, P. W. Nutr. Cancer. 2003, 45, 236-246, Shah, S. J., Sylvester, P. W. Biochem. Cell. Biol. 2005, 83, 86-95, Wali, V. B., Sylvester, P. W. Lipids, 2007, 42, 1113-1123, and Wali, V. B., Bachawal, S. V., Sylvester, P. W. Exp. Biol. Med. (Maywood) 2009, 234, 639-650. Briefly, +SA cells were maintained in serum-free defined medium consisting of Dulbecco's modified Eagle's medium (DMEM)/F12 containing 5 mg/ml bovine serum albumin (BSA), […], 100 U/ml soybean trypsin inhibitor, 100 U/ml penicillin, 0.1 mg/ml streptomycin, […], and 10 ng/ml epidermal growth factor. For subculturing, cells were rinsed twice with sterile Ca^2+ and Mg^2+-free phosphate buffered saline (PBS) and incubated in 0.05% trypsin containing 0.025% EDTA in PBS for 5 minutes at 37° C. The released cells were centrifuged, resuspended in serum-free defined media and counted using a hemocytometer. A stock solution of the Compounds was prepared in DMSO. Once dissolved, this solution was added to a small volume of sterile 10% BSA in water and incubated overnight at 37° C. This solution conjugated to BSA was used to prepare various concentrations (0-40 μM) of tocotrienol analogs. DMSO was added to all treatment media such that the final DMSO concentration was the same in all treatment groups within a given experiment and was always less than 0.1%. For cytotoxicity studies, cells were seeded at a density of 5×10^4 cells/well (6 wells/group) in 24-well culture plates and allowed to grow in serum-free control defined media. After a 3 day incubation period (approximately 70% confluency), cells were divided equally into various treatment groups and exposed to their respective treatments for a 24 hour incubation period. Following the 24 hour treatment period, cell viability was measured using the MTT assay. All materials were purchased from Sigma Chemical Company (St. Louis, Mo.) unless otherwise stated.
+SA mammary epithelial cell viable number was determined by the 3-(4,5-dimethylthiazol-2-yl)-2,5-diphenyl tetrazolium bromide (MTT) colorimetric assay. On the day of assay, treatment medium was replaced with fresh growth medium containing 0.42 mg/ml MTT, and the cells in 24-well plates were incubated at 37° C. for 4 hours. Afterward, the medium was removed, and the MTT crystals were dissolved in isopropyl alcohol (1 ml/well). The optical density of each sample was read at 570 nm on a microplate reader (SpectraCount, Packard BioScience Company), against a blank prepared from cell-free cultures. The number of cells/well was calculated against a standard curve prepared by plating various concentrations of cells, as determined by hemocytometer, at the start of each experiment.
Differences among the various treatment groups in +SA cell cytotoxic studies were determined by analysis of variance (ANOVA) followed by Dunnett's t-test. The difference of P<0.05 was considered to be statistically significant as compared with vehicle-treated controls. Linear regression analysis of treatment effects on viable cell number in growth and cytotoxicity studies was used to determine the 50% growth inhibition concentration (IC50) for individual treatments.

Series [2] in a line: Water solubility in phosphate buffer. It is filed as physicochemical. To be noted: phosphate buffer pH 7.4, 25° C. On the procedure: About 5.6 mg of each of α-tocotrienol and Compound 6 were added to 3 mL of phosphate buffer (pH 7.4) in amber vials. Tested solutions were maintained shaking under at 25° C. for 24 h in a constant-temperature water bath. Each solution was then centrifuged at 5,000 rpm for 10 min before collecting samples from the clear supernatant at 0, 1, 2, 4, 6, and 24 h. Each compound concentration in the aspirates was determined by HPLC. […] The solubility of α-tocotrienol maleate (Compound 6) was nearly 1000 fold that of its parent α-tocotrienol.
A Shimadzu HPLC system (Columbia, Md.) was used for quantification of α-tocotrienol and Compound 6. This system is composed of SIL 20-AHT autosampler, SPD-20A UV/VIS detector, and LC-20AB pump connected to a Dgu-20A3 degasser. Data acquisition was achieved by LC Solution software version 1.22 SP1 Shimadzu. The following chromatographic conditions were used: […] (250×4.6 mm id; Phenomenex, Torrance, Calif.), flow rate was adjusted to 1.0 mL/min, and λ was set at 295 nm. For α-tocotrienol solubility and stability studies, an isocratic elution with MeOH-EtOH—CH3CN (40:30:30, v/v/v) as mobile phase for 10 min. α-tocotrienol was eluted at 6.7 min. […] Each compound was quantified using its calibration curve for compounds peak area versus its concentration.

Series [3] is described as follows: Stability in phosphate buffer. In kind it is physicochemical. To be noted: 24 h, 500 μg/mL, pH 7.4. The procedure:
The stability of each of α-tocotrienol and Compound 6 was studied at 37° C. in phosphate buffer (pH 7.4). In amber vials, 500 μg/mL of each compound were dissolved in the buffer and the solution was incubated at 37° C. At interval times (0, 0.5, 1, 2, 4, 6, and 24 h), 50 μL it samples were collected and equal volumes of methanol were added to each sample followed by HPLC analysis.
as §1

Each structure is given as a SMILES string.

With `CC(C)=CCC/C(C)=C/CC/C(C)=C/CC[C@]1(C)CCc2c(C)c(OC(=O)/C=C\C(=O)O)c(C)c(C)c2O1` [Compound 6, (Z)-4-oxo-4-((R)-2,5,7,8-tetramethyl-2-((3E,7E)-4,8,12-trimethyltrideca-3,7,11-trienyl)chroman-6-yloxy)but-2-enoic acid], the “% of the initial concentration in rat plasma” value in the series “Stability in rat plasma” (4th hour) is given as 81%; in the series “Stability in rat plasma” (5th hour), 77%; in “Stability in rat plasma” (after 24 hours), 43%. For the same compound, the “concentration stable in rat plasma” value in “Stability in rat plasma” (over the first 3 h) is given as 100%. The half-maximal inhibitory concentration (IC50) is 510 nM in series [1] (Mus musculus, Epithelial cell, 24 h) and 520 nM in series [1]. In addition, in series [2], the “solubility relative to parent α-tocotrienol” value is reported as ~1000 fold. Moreover, the “chemical stability relative to the zero time concentration” value in series [3] amounted to 100%.
